Data: patent publication US20250324971A1, “HERBICIDAL DERIVATIVES” (SYNGENTA CROP PROTECTION AG, priority 2022, published 2025)

What was measured:
Assay type in all cases: in vivo
[1] = test system: Zea mays (ZEAMX); experiment: Pre-Emergence Test (herbicidal, glasshouse pots); details: evaluated after 13 days, five-point scale
[2] = test system: Amaranthus palmeri (AMAPA); experiment: Pre-Emergence Test (herbicidal, glasshouse pots); details: evaluated after 13 days, five-point scale
[3] = test system: Ipomoea hederacea (IPOHE); experiment: Pre-Emergence Test (herbicidal, glasshouse pots); details: evaluated after 13 days, five-point scale
[4] = test system: Zea mays (ZEAMX); experiment: Post-Emergence Test (herbicidal, glasshouse pots); details: evaluated after 13 days
Summary of the method: (§1)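 Scores (1-5, each step a 20% band of plant damage) reflect evaluation 13 days post-spray. Treatment: sown pots, glasshouse at 24° C. day and 16° C. night with 14 hours light, sprayed in g/ha from acetone/water (50:50) plus 0.5% Tween 20, watered twice daily thereafter.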

[5] = test system: Amaranthus palmeri (AMAPA); experiment: Post-Emergence Test (herbicidal, glasshouse pots); details: evaluated after 13 days
Summary of the method: as §1

[6] = test system: Ipomoea hederacea (IPOHE); experiment: Post-Emergence Test (herbicidal, glasshouse pots); details: evaluated after 13 days
Summary of the method: as §1

[7] = test system: Echinochloa crus-galli (ECHCG); experiment: Post-Emergence Test (herbicidal, glasshouse pots); details: evaluated after 13 days
Summary of the method: as §1

[8] = test system: Setaria faberi (SETFA); experiment: Post-Emergence Test (herbicidal, glasshouse pots); details: evaluated after 13 days
Summary of the method: as §1

[9] = test system: Amaranthus retoflexus (AMARE); experiment: Post-Emergence Test (herbicidal, glasshouse pots); details: evaluated after 13 days
Summary of the method: as §1

[10] = test system: Amaranthus retoflexus (AMARE); experiment: Pre-Emergence Test (herbicidal, glasshouse pots); details: evaluated after 13 days, five-point scale
[11] = test system: Setaria faberi (SETFA); experiment: Pre-Emergence Test (herbicidal, glasshouse pots); details: evaluated after 13 days, five-point scale
[12] = test system: Echinochloa crus-galli (ECHCG); experiment: Pre-Emergence Test (herbicidal, glasshouse pots); details: evaluated after 13 days, five-point scale

Structure (SMILES) | percentage damage caused to the plant, ZEAMX ([1]; rate 250 g/ha) | percentage damage caused to the plant, AMAPA ([2]; rate 250 g/ha) | percentage damage caused to the plant, IPHOE ([3]; rate 250 g/ha) | Post-Emergence Test ZEAMX percentage damage (five-point scale) ([4]; rate 250 g/ha) | Post-Emergence Test AMAPA percentage damage (five-point scale) ([5]; rate 250 g/ha) | Post-Emergence Test IPHOE percentage damage (five-point scale) ([6]; rate 250 g/ha) | Post-Emergence Test ECHCG percentage damage (five-point scale) ([7]; rate 250 g/ha) | Post-Emergence Test SETFA percentage damage (five-point scale) ([8]; rate 250 g/ha) | Post-Emergence Test AMARE percentage damage (five-point scale) ([9]; rate 250 g/ha) | percentage damage caused to the plant, AMARE ([10]; rate 250 g/ha) | percentage damage caused to the plant, SETFA ([11]; rate 250 g/ha) | percentage damage caused to the plant, ECHCG ([12]; rate 250 g/ha) | other results
CCn1c(Oc2ccc(F)nc2)cc(=O)c(C(=O)O)c1-c1ccc(Cl)c(Cl)c1 [Compound 52, 2-(3,4-dichlorophenyl)-1-ethyl-6-[(6-fluoro-3-pyridyl)oxy]-4-oxo-pyridine-3-carboxylic acid] | 5 (5=81-100%) | 2 (2=21-40%) | 3 (3=41-60%) | 4 (4=61-80%) | 1 (1=0-20%) | 4 (4=61-80%) | 4 (4=61-80%) | 4 (4=61-80%) | 4 (4=61-80%) | 3 (3=41-60%) | 5 (5=81-100%) | 4 (4=61-80%) | –
CCn1c(Oc2ccc(C)cc2)cc(=O)c(C(=O)O)c1-c1ccc(Cl)c(Cl)c1 [Compound 53, 2-(3,4-dichlorophenyl)-1-ethyl-6-(4-methylphenoxy)-4-oxo-pyridine-3-carboxylic acid] | 0 | 0 | 1 (1=0-20%) | 1 (1=0-20%) | 4 (4=61-80%) | 4 (4=61-80%) | 0 | 1 (1=0-20%) | 3 (3=41-60%) | 2 (2=21-40%) | 1 (1=0-20%) | 0 | –
CCn1c(Oc2ccnc(Cl)c2)cc(=O)c(C(=O)O)c1-c1ccc(Cl)c(Cl)c1 [Compound 54, 6-[(2-chloro-4-pyridyl)oxy]-2-(3,4-dichlorophenyl)-1-ethyl-4-oxo-pyridine-3-carboxylic acid] | 1 (1=0-20%) | 1 (1=0-20%) | 4 (4=61-80%) | 4 (4=61-80%) | 3 (3=41-60%) | 4 (4=61-80%) | 3 (3=41-60%) | 3 (3=41-60%) | 4 (4=61-80%) | 3 (3=41-60%) | 5 (5=81-100%) | 4 (4=61-80%) | –
CCn1c(Oc2cc(C3CC3)on2)cc(=O)c(C(=O)O)c1-c1ccc(Cl)c(Cl)c1 [Compound 55, 6-(5-cyclopropylisoxazol-3-yl)oxy-2-(3,4-dichlorophenyl)-1-ethyl-4-oxo-pyridine-3-carboxylic acid] | 0 | 0 | 0 | 2 (2=21-40%) | 4 (4=61-80%) | 3 (3=41-60%) | 2 (2=21-40%) | 2 (2=21-40%) | 4 (4=61-80%) | 1 (1=0-20%) | 1 (1=0-20%) | 1 (1=0-20%) | –
CCn1c(Oc2cc(C(F)F)n(C)n2)cc(=O)c(C(=O)O)c1-c1ccc(Cl)c(Cl)c1 [Compound 56, 2-(3,4-dichlorophenyl)-6-[5-(difluoromethyl)-1-methyl-pyrazol-3-yl]oxy-1-ethyl-4-oxo-pyridine-3-carboxylic acid] | – | – | – | – | – | – | – | – | – | – | – | – | percentage damage caused to the plant, ZEAMX ([1]; rate 62.5 g/ha): 0; percentage damage caused to the plant, AMAPA ([2]; rate 62.5 g/ha): 0; percentage damage caused to the plant, IPHOE ([3]; rate 62.5 g/ha): 0; Post-Emergence Test ZEAMX percentage damage (five-point scale) ([4]; rate 62.5 g/ha): 0; Post-Emergence Test AMAPA percentage damage (five-point scale) ([5]; rate 62.5 g/ha): 3 (3=41-60%); Post-Emergence Test IPHOE percentage damage (five-point scale) ([6]; rate 62.5 g/ha): 3 (3=41-60%); Post-Emergence Test ECHCG percentage damage (five-point scale) ([7]; rate 62.5 g/ha): 2 (2=21-40%); Post-Emergence Test SETFA percentage damage (five-point scale) ([8]; rate 62.5 g/ha): 3 (3=41-60%); Post-Emergence Test AMARE percentage damage (five-point scale) ([9]; rate 62.5 g/ha): 2 (2=21-40%); percentage damage caused to the plant, AMARE ([10]; rate 62.5 g/ha): 0; percentage damage caused to the plant, SETFA ([11]; rate 62.5 g/ha): 1 (1=0-20%); percentage damage caused to the plant, ECHCG ([12]; rate 62.5 g/ha): 0
CCn1ccc(Oc2cc(=O)c(C(=O)O)c(-c3ccc(Cl)c(Cl)c3)n2CC)n1 [Compound 57, 2-(3,4-dichlorophenyl)-1-ethyl-6-(1-ethylpyrazol-3-yl)oxy-4-oxo-pyridine-3-carboxylic acid] | 5 (5=81-100%) | 3 (3=41-60%) | 4 (4=61-80%) | 4 (4=61-80%) | 4 (4=61-80%) | 4 (4=61-80%) | 4 (4=61-80%) | 4 (4=61-80%) | 4 (4=61-80%) | 4 (4=61-80%) | 5 (5=81-100%) | 4 (4=61-80%) | –
CCn1c(Oc2ccn(C3CC3)n2)cc(=O)c(C(=O)O)c1-c1ccc(Cl)c(Cl)c1 [Compound 58, 6-(1-cyclopropylpyrazol-3-yl)oxy-2-(3,4-dichlorophenyl)-1-ethyl-4-oxo-pyridine-3-carboxylic acid] | 5 (5=81-100%) | 3 (3=41-60%) | 5 (5=81-100%) | 4 (4=61-80%) | 3 (3=41-60%) | 4 (4=61-80%) | 3 (3=41-60%) | 3 (3=41-60%) | 4 (4=61-80%) | 4 (4=61-80%) | 5 (5=81-100%) | 5 (5=81-100%) | –
